# Source: the kinase profiling compilation of Christmann-Franck et al. (2016)
# Experiments:
# Test in all cases: radiometric filter-binding kinase assay
# HIPK1 (human) = HIPK1 (human) (UniProt Q86Z02); conditions: compound 10.0 µM
# HIPK2 (human) = HIPK2 (human) (UniProt Q9H2X6)
# EPHB1 (human) = EPHB1 (human) (UniProt P54762)
# PRKCA (human) = PRKCA (human) (UniProt P17252)
# DYRK3 (human) = DYRK3 (human) (UniProt O43781)
# INSR (human) = INSR (human) (UniProt P06213)
# AURKA (human) = AURKA (human) (UniProt O14965)
# DYRK2 (human) = DYRK2 (human) (UniProt Q92630)
# GCK (human) = GCK (human) (UniProt Q12851)
# BTK (human) = BTK (human) (UniProt Q06187)
# MAPKAPK5 (human) = MAPKAPK5 (human) (UniProt Q8IW41); conditions: compound 1.0 µM
# MAPK8 (human) = MAPK8 (human) (UniProt P45983)
# TAOK1 (human) = TAOK1 (human) (UniProt Q7L7X3)
# JAK2 JH1 JH2 (human) = JAK2 JH1 JH2 (human) (UniProt O60674)
# YES1 (human) = YES1 (human) (UniProt P07947)
# EPHB4 (human) = EPHB4 (human) (UniProt P54760)
# SYK (human) = SYK (human) (UniProt P43405)
# [1] = test system: AKT1 (human), P31749 [S473D]
# EPHB2 (human) = EPHB2 (human) (UniProt P29323)
# [2] = test system: RPS6KB1 (human), P23443 [T412E]
# MAP3K11 (human) = MAP3K11 (human) (UniProt Q16584)
# MAP3K1 (human) = MAP3K1 (human) (UniProt Q13233)
# MAPK11 (human) = MAPK11 (human) (UniProt Q15759); conditions: compound 1.0 µM
# MAP2K1 (human) = MAP2K1 (human) (UniProt Q02750)
# PIM1 (human) = PIM1 (human) (UniProt P11309)
# BRSK2 (human) = BRSK2 (human) (UniProt Q8IWQ3); conditions: compound 10.0 µM
# EPHA2 (human) = EPHA2 (human) (UniProt P29317)
# CaMK1 (human) = CaMK1 (human) (UniProt Q14012)
# MAP3K5 (human) = MAP3K5 (human) (UniProt Q99683)
# MARK3 (human) = MARK3 (human) (UniProt P27448)
# FLT1 (human) = FLT1 (human) (UniProt P17948)
# BRSK1 (human) = BRSK1 (human) (UniProt Q8TDC3); conditions: compound 1.0 µM
# MAPK10 (human) = MAPK10 (human) (UniProt P53779)
# MAPK9 (human) = MAPK9 (human) (UniProt P45984)
# STK3 (human) = STK3 (human) (UniProt Q13188)
# TBK1 (human) = TBK1 (human) (UniProt Q9UHD2)
# Chain of JAK2 JH1 JH2 (human) (O60674 whole entry, looked up): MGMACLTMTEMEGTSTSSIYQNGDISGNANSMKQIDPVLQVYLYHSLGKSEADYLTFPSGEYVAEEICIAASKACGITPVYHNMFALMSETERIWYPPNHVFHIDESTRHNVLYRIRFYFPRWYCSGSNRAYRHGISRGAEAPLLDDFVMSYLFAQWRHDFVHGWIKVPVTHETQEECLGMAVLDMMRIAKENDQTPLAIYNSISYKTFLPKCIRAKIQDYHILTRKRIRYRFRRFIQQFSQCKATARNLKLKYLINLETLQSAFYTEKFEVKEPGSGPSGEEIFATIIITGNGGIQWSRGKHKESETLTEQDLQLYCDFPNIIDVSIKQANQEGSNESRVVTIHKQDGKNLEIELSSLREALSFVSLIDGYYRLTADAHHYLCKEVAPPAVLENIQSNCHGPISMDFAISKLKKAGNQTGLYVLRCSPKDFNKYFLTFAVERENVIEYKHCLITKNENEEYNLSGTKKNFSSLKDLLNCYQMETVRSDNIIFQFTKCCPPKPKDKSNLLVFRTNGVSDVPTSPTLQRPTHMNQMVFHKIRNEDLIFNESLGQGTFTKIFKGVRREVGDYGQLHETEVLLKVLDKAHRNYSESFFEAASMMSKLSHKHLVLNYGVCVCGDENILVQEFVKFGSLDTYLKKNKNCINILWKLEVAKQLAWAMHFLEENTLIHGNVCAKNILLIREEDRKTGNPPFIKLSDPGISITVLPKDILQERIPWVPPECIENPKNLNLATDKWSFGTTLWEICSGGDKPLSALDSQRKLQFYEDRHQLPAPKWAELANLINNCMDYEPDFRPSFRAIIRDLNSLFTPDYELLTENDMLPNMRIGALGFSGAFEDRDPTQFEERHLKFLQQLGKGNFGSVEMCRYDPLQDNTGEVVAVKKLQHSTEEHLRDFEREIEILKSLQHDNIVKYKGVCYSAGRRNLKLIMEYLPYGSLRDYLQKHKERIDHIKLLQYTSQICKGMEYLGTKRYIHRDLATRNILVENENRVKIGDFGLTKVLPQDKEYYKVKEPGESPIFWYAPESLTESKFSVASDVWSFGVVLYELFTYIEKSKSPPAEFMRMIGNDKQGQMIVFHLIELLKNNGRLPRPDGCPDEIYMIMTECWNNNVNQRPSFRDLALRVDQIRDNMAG
# Chain of MARK3 (human) (P27448 whole entry, looked up): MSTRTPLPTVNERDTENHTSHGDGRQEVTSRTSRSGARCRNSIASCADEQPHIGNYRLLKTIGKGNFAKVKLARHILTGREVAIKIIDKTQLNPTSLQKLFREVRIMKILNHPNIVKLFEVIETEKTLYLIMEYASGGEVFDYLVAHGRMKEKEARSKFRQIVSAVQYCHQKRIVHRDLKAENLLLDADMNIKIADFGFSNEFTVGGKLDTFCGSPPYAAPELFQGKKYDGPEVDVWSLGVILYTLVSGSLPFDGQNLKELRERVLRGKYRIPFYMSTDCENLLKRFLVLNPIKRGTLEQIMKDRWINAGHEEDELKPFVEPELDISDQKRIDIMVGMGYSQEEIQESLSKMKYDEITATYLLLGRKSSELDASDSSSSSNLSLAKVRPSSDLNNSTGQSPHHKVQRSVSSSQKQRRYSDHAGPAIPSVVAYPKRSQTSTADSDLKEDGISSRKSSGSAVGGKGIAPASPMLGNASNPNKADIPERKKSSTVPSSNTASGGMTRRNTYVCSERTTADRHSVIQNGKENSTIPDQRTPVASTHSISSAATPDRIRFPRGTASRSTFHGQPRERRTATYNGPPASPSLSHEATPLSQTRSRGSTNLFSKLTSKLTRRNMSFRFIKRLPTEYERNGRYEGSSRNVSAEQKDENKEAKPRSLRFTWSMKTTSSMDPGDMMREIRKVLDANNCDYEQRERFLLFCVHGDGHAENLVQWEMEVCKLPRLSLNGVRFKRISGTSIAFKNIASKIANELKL
# Chain of FLT1 (human) (P17948 whole entry, looked up): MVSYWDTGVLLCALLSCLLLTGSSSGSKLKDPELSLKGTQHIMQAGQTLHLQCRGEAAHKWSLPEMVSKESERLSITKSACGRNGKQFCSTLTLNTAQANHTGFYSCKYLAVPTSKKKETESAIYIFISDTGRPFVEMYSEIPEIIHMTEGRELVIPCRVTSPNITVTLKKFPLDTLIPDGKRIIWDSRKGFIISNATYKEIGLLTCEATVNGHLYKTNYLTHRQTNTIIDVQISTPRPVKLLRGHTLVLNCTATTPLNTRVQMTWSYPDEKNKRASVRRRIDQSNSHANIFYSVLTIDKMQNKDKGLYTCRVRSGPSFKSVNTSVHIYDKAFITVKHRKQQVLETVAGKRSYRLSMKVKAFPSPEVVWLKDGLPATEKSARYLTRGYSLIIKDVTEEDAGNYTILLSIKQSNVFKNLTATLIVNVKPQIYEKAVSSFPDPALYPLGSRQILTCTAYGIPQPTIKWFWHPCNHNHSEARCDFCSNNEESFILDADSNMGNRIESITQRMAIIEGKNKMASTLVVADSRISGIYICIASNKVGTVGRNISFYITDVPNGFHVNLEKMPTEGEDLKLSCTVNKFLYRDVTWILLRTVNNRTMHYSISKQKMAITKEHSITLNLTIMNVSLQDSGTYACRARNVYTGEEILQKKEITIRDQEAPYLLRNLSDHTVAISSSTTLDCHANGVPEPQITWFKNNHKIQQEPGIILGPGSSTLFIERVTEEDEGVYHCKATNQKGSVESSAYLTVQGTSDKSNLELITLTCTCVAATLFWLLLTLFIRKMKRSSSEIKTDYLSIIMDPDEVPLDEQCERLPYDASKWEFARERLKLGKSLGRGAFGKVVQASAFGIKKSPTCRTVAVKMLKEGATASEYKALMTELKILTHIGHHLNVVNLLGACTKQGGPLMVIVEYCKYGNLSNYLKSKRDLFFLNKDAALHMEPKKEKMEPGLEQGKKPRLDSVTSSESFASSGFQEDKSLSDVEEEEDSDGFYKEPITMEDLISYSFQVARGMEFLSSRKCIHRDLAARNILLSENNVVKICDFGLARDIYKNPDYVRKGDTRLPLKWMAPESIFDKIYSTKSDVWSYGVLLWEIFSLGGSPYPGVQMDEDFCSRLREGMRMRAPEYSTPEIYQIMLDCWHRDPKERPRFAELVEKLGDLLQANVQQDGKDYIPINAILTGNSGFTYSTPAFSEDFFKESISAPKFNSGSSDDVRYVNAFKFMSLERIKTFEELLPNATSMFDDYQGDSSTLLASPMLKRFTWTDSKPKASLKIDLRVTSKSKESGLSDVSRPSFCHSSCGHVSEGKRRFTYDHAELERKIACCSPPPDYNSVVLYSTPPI
# Chain of DYRK3 (human) (O43781 whole entry, looked up): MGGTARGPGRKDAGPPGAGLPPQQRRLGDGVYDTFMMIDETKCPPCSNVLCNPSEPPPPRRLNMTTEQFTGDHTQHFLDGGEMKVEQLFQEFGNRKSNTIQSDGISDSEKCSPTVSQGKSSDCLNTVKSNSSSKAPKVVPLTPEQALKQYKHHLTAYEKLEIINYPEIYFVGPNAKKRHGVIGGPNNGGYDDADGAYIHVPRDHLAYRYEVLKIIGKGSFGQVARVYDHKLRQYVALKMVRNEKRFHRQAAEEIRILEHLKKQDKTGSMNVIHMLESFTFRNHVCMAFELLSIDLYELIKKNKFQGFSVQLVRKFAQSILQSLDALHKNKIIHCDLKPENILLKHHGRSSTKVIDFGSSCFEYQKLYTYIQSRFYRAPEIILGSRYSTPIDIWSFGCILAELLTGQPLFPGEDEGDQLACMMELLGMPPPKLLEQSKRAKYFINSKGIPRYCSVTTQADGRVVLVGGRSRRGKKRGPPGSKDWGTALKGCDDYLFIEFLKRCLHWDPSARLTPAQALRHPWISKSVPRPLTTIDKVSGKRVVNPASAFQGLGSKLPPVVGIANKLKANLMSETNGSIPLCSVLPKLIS
# Chain of CaMK1 (human) (Q14012 whole entry, looked up): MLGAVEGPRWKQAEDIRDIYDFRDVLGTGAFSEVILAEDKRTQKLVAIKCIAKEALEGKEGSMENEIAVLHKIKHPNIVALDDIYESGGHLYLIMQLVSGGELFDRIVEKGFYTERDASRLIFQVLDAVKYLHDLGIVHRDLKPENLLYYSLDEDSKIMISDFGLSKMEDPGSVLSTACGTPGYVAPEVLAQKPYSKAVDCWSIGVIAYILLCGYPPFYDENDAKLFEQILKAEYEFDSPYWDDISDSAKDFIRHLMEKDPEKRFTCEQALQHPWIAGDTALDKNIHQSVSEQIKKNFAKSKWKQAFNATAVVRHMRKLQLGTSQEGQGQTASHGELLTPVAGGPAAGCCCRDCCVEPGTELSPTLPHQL
smiles,measurement,setting,value
COc1cc2ncn(-c3cc(OCc4ccccc4S(C)(=O)=O)c(C#N)s3)c2cc1OC,residual activity,HIPK1 (human),58%
same,residual activity,HIPK2 (human); compound 1.0 µM,49%
same,residual activity,HIPK2 (human); compound 10.0 µM,32%
same,residual activity,EPHB1 (human); compound 1.0 µM,79%
same,residual activity,EPHB1 (human); compound 10.0 µM,95%
same,residual activity,PRKCA (human); compound 1.0 µM,96%
same,residual activity,PRKCA (human); compound 10.0 µM,88%
same,residual activity,DYRK3 (human); compound 1.0 µM,75%
same,residual activity,DYRK3 (human); compound 10.0 µM,82%
same,residual activity,INSR (human); compound 1.0 µM,104%
same,residual activity,INSR (human); compound 10.0 µM,105%
same,residual activity,AURKA (human); compound 1.0 µM,29%
same,residual activity,AURKA (human); compound 10.0 µM,6%
same,residual activity,DYRK2 (human); compound 1.0 µM,84%
same,residual activity,DYRK2 (human); compound 10.0 µM,72%
same,residual activity,GCK (human); compound 1.0 µM,24%
same,residual activity,GCK (human); compound 10.0 µM,8%
same,residual activity,BTK (human); compound 1.0 µM,63%
same,residual activity,BTK (human); compound 10.0 µM,45%
same,residual activity,MAPKAPK5 (human),101%
same,residual activity,MAPK8 (human); compound 1.0 µM,92%
same,residual activity,MAPK8 (human); compound 10.0 µM,87%
same,residual activity,TAOK1 (human); compound 1.0 µM,61%
same,residual activity,TAOK1 (human); compound 10.0 µM,27%
same,residual activity,JAK2 JH1 JH2 (human); compound 1.0 µM,34%
same,residual activity,JAK2 JH1 JH2 (human); compound 10.0 µM,18%
same,residual activity,YES1 (human); compound 1.0 µM,43%
same,residual activity,YES1 (human); compound 10.0 µM,58%
same,residual activity,EPHB4 (human); compound 1.0 µM,94%
same,residual activity,EPHB4 (human); compound 10.0 µM,82%
same,residual activity,SYK (human); compound 1.0 µM,95%
same,residual activity,SYK (human); compound 10.0 µM,87%
same,residual activity,[1]; compound 1.0 µM,98%
same,residual activity,[1]; compound 10.0 µM,85%
same,residual activity,EPHB2 (human); compound 1.0 µM,62%
same,residual activity,EPHB2 (human); compound 10.0 µM,50%
same,residual activity,[2]; compound 1.0 µM,87%
same,residual activity,[2]; compound 10.0 µM,66%
same,residual activity,MAP3K11 (human); compound 1.0 µM,5%
same,residual activity,MAP3K11 (human); compound 10.0 µM,3%
same,residual activity,MAP3K1 (human); compound 1.0 µM,77%
same,residual activity,MAP3K1 (human); compound 10.0 µM,54%
same,residual activity,MAPK11 (human),103%
same,residual activity,MAP2K1 (human); compound 1.0 µM,78%
same,residual activity,MAP2K1 (human); compound 10.0 µM,75%
same,residual activity,PIM1 (human); compound 1.0 µM,94%
same,residual activity,PIM1 (human); compound 10.0 µM,71%
same,residual activity,BRSK2 (human),30%
same,residual activity,EPHA2 (human); compound 1.0 µM,66%
same,residual activity,EPHA2 (human); compound 10.0 µM,53%
same,residual activity,CaMK1 (human); compound 1.0 µM,90%
same,residual activity,CaMK1 (human); compound 10.0 µM,80%
same,residual activity,MAP3K5 (human); compound 1.0 µM,83%
same,residual activity,MAP3K5 (human); compound 10.0 µM,69%
same,residual activity,MARK3 (human); compound 1.0 µM,31%
same,residual activity,MARK3 (human); compound 10.0 µM,41%
same,residual activity,FLT1 (human); compound 1.0 µM,15%
same,residual activity,FLT1 (human); compound 10.0 µM,23%
same,residual activity,BRSK1 (human),40%
same,residual activity,MAPK10 (human); compound 1.0 µM,99%
same,residual activity,MAPK10 (human); compound 10.0 µM,77%
same,residual activity,MAPK9 (human); compound 1.0 µM,95%
same,residual activity,MAPK9 (human); compound 10.0 µM,90%
same,residual activity,STK3 (human); compound 1.0 µM,19%
same,residual activity,STK3 (human); compound 10.0 µM,7%
same,residual activity,TBK1 (human); compound 1.0 µM,21%
same,residual activity,TBK1 (human); compound 10.0 µM,17%
